Assay results: ChEMBL document CHEMBL4507269, “Data for DCP probe BAY-386” (2021)

Tests used:
[1] = target: Tyrosine-protein kinase Lck (Homo sapiens) (UniProt P06239); conditions: Compound concentration 1000.0 nM
[2] = target: Beta-1 adrenergic receptor (Homo sapiens) (UniProt P08588); experiment: beta1 (h) Eurofins-Cerep Cellular and Nuclear Receptor Functional Assays; conditions: Compound concentration 10.0 uM
[3] = target: Receptor-interacting serine/threonine-protein kinase 2 (Homo sapiens) (UniProt O43353); conditions: Compound concentration 1000.0 nM
[4] = target: Serine/threonine-protein kinase 36 (Homo sapiens) (UniProt Q9NRP7); conditions: Compound concentration 1000.0 nM
[5] = target: Casein kinase II subunit alpha' (Homo sapiens) (UniProt P19784); conditions: Compound concentration 1000.0 nM
[6] = target: Serine/threonine-protein kinase 38-like (Homo sapiens) (UniProt Q9Y2H1); conditions: Compound concentration 1000.0 nM
[7] = target: cGMP-dependent protein kinase 1 (Homo sapiens) (UniProt Q13976); conditions: Compound concentration 1000.0 nM
[8] = target: Death-associated protein kinase 1 (Homo sapiens) (UniProt P53355); conditions: Compound concentration 1000.0 nM
[9] = target: Inhibitor of nuclear factor kappa-B kinase subunit epsilon (Homo sapiens) (UniProt Q14164); conditions: Compound concentration 1000.0 nM
[10] = target: T1, Alpha-2A adrenergic receptor (Homo sapiens) (UniProt P08913); conditions: Compound concentration 10.0 uM
T1 sequence (whole entry): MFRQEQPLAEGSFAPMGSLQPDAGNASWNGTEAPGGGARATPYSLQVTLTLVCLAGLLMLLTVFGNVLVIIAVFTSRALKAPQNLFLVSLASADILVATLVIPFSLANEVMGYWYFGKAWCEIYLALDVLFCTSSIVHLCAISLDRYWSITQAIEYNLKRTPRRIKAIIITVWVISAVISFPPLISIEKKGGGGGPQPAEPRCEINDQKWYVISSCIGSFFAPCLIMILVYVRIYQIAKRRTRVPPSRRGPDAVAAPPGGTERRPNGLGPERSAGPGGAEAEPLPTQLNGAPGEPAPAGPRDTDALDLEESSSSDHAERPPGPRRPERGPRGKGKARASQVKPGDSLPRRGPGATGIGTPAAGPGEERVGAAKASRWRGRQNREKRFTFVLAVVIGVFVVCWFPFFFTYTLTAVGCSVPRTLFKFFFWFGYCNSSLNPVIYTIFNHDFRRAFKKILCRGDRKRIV

[11] = test system: Tyrosine-protein kinase ABL1 (Homo sapiens), P00519 [T315I]; conditions: Compound concentration 1000.0 nM
[12] = target: Inhibitor of nuclear factor kappa-B kinase subunit alpha (Homo sapiens) (UniProt O15111); conditions: Compound concentration 1000.0 nM
[13] = target: Megakaryocyte-associated tyrosine-protein kinase (Homo sapiens) (UniProt P42679); conditions: Compound concentration 1000.0 nM
[14] = target: Dual specificity mitogen-activated protein kinase kinase 4 (Homo sapiens) (UniProt P45985); conditions: Compound concentration 1000.0 nM
[15] = target: TRAF2 and NCK-interacting protein kinase (Homo sapiens) (UniProt Q9UKE5); conditions: Compound concentration 1000.0 nM
[16] = target: Cyclin-dependent kinase 15 (Homo sapiens) (UniProt Q96Q40); conditions: Compound concentration 1000.0 nM
[17] = target: Cannabinoid receptor 1 (Homo sapiens) (UniProt P21554); experiment: CB1 (h) Eurofins-Cerep Cellular and Nuclear Receptor Functional Assays; conditions: Compound concentration 10.0 uM
[18] = test system: ALK tyrosine kinase receptor (Homo sapiens), Q9UM73 [L1196M]; conditions: Compound concentration 1000.0 nM
[19] = target: Protein kinase C theta type (Homo sapiens) (UniProt Q04759); conditions: Compound concentration 1000.0 nM
[20] = target: MAP/microtubule affinity-regulating kinase 3 (Homo sapiens) (UniProt P27448); conditions: Compound concentration 1000.0 nM
[21] = target: D(1B) dopamine receptor (Homo sapiens) (UniProt P21918); conditions: Compound concentration 10.0 uM
[22] = target: Proto-oncogene tyrosine-protein kinase ROS (Homo sapiens) (UniProt P08922); conditions: Compound concentration 1000.0 nM
[23] = target: T1, Alpha-2A adrenergic receptor (Homo sapiens); experiment: alpha2A (h) Eurofins-Cerep Cellular and Nuclear Receptor Functional Assays; conditions: Compound concentration 10.0 uM
[24] = target: Mitogen-activated protein kinase 3 (Homo sapiens) (UniProt P27361); conditions: Compound concentration 1000.0 nM
[25] = target: Sodium-dependent dopamine transporter (Homo sapiens) (UniProt Q01959); conditions: Compound concentration 10.0 uM
[26] = target: Tyrosine-protein kinase JAK2 (Homo sapiens) (UniProt O60674); conditions: Compound concentration 1000.0 nM
[27] = target: Serine/threonine-protein kinase Nek10 (Homo sapiens) (UniProt Q6ZWH5); conditions: Compound concentration 1000.0 nM
[28] = test system: Phosphatidylinositol 4,5-bisphosphate 3-kinase catalytic subunit alpha isoform (Homo sapiens), P42336 [H1047Y]; conditions: Compound concentration 1000.0 nM
[29] = target: Activin receptor type-2B (Homo sapiens) (UniProt Q13705); conditions: Compound concentration 1000.0 nM
[30] = test system: Proto-oncogene tyrosine-protein kinase receptor Ret (Homo sapiens), P07949 [M918T]; conditions: Compound concentration 1000.0 nM
[31] = test system: Leucine-rich repeat serine/threonine-protein kinase 2 (Homo sapiens), Q5S007 [G2019S]; conditions: Compound concentration 1000.0 nM
[32] = target: Proto-oncogene tyrosine-protein kinase Src (Homo sapiens) (UniProt P12931); conditions: Compound concentration 1000.0 nM
[33] = target: D(2) dopamine receptor (Homo sapiens) (UniProt P14416); conditions: Compound concentration 10.0 uM
[34] = target: SRSF protein kinase 3 (Homo sapiens) (UniProt Q9UPE1); conditions: Compound concentration 1000.0 nM
[35] = target: Aurora kinase A (Homo sapiens) (UniProt O14965); conditions: Compound concentration 1000.0 nM
[36] = target: Ephrin type-A receptor 5 (Homo sapiens) (UniProt P54756); conditions: Compound concentration 1000.0 nM
[37] = target: SRSF protein kinase 1 (Homo sapiens) (UniProt Q96SB4); conditions: Compound concentration 1000.0 nM
[38] = target: Transient receptor potential cation channel subfamily M member 6 (Homo sapiens) (UniProt Q9BX84); conditions: Compound concentration 1000.0 nM

Sequence of Cannabinoid receptor 1 (Homo sapiens) (P21554 whole entry): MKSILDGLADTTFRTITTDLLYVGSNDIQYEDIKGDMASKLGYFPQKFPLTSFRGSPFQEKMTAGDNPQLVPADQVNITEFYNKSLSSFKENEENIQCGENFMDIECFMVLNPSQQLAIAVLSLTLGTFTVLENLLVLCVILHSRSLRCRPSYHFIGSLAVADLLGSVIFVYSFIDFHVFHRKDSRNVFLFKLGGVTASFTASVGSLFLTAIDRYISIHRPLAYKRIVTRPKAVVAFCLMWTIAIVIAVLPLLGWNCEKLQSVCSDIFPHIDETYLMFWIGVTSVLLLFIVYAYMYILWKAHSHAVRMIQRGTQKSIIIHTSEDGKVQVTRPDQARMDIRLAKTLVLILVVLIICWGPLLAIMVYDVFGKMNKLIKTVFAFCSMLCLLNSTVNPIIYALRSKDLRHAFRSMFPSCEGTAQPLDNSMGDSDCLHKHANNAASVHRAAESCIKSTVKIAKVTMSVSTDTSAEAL
Sequence of Beta-1 adrenergic receptor (Homo sapiens) (P08588 whole entry, looked up): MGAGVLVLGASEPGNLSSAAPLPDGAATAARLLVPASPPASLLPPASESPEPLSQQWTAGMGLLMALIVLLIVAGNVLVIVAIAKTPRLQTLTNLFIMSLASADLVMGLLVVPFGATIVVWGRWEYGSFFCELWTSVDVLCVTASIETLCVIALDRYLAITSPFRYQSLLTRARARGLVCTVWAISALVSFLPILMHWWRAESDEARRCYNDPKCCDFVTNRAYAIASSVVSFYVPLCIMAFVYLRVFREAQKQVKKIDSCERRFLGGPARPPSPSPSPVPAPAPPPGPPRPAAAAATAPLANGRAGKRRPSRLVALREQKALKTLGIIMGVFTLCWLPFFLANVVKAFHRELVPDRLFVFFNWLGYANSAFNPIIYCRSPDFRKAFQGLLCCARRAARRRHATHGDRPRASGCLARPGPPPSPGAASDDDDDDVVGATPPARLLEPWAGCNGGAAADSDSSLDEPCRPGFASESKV
Sequence of Receptor-interacting serine/threonine-protein kinase 2 (Homo sapiens) (O43353 whole entry): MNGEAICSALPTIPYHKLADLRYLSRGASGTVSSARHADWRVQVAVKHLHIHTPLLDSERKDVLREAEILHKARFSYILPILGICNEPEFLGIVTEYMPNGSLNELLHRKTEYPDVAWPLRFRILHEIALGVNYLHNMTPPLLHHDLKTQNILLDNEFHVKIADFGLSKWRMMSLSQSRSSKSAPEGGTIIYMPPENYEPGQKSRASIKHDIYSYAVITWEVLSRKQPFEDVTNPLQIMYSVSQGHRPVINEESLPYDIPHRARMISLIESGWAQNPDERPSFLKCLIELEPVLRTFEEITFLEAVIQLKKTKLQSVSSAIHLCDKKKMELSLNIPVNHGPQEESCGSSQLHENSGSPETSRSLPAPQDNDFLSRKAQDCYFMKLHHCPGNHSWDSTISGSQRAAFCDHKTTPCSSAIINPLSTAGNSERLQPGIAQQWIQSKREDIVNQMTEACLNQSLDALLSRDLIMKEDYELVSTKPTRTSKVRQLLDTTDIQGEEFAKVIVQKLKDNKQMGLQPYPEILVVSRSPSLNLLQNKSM
Sequence of Aurora kinase A (Homo sapiens) (O14965 whole entry): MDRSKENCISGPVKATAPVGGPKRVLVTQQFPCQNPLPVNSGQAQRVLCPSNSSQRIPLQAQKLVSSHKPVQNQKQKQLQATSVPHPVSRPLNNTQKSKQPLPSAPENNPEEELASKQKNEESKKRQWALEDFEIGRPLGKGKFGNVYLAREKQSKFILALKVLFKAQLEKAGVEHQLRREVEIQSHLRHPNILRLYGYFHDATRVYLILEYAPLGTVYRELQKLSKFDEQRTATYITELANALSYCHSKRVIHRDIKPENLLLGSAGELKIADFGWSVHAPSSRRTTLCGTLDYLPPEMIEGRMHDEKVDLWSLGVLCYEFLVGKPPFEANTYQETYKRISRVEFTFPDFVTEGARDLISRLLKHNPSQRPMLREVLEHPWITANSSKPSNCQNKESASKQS
Sequence of Mitogen-activated protein kinase 3 (Homo sapiens) (P27361 whole entry): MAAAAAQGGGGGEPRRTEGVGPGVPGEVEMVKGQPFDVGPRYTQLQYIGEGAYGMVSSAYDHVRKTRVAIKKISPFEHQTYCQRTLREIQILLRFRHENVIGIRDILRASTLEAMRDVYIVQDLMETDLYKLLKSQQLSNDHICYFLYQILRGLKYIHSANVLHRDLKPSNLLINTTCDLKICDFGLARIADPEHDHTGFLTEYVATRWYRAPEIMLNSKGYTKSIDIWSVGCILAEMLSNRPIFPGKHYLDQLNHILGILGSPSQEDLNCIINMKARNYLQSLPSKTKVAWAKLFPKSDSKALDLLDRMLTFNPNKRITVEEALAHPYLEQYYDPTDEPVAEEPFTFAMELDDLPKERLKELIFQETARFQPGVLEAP
Sequence of Serine/threonine-protein kinase Nek10 (Homo sapiens) (Q6ZWH5 whole entry, canonical isoform): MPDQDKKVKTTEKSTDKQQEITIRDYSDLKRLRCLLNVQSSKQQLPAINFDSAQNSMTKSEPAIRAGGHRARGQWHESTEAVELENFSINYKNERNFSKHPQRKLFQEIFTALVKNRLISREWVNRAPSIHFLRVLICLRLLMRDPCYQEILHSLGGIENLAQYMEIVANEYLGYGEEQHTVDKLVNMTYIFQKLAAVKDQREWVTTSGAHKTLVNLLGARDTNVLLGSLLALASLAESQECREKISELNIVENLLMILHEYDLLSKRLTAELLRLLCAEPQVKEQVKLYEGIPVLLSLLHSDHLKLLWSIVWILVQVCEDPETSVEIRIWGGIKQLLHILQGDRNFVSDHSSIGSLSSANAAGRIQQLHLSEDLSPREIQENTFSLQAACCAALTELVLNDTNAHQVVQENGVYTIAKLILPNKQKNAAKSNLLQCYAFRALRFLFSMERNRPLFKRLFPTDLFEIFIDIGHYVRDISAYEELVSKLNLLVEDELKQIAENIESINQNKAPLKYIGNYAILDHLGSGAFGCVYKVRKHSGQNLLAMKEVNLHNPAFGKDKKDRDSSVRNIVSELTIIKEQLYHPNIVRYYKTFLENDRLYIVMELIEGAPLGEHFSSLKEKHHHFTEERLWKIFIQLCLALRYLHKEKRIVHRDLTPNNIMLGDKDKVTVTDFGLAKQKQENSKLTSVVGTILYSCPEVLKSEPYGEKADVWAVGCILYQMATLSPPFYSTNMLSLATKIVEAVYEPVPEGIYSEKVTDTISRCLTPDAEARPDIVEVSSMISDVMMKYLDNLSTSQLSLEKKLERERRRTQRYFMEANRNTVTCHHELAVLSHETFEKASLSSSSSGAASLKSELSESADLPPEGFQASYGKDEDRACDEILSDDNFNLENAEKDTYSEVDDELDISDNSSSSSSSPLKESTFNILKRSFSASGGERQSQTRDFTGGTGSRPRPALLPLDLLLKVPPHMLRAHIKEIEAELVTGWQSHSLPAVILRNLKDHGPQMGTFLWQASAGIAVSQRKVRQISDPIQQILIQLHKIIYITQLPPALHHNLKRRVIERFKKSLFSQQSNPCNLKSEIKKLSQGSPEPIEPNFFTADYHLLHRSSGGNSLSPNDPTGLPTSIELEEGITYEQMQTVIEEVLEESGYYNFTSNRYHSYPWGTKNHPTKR
Sequence of Proto-oncogene tyrosine-protein kinase receptor Ret (Homo sapiens), P07949 [M918T] (P07949 whole entry M918T): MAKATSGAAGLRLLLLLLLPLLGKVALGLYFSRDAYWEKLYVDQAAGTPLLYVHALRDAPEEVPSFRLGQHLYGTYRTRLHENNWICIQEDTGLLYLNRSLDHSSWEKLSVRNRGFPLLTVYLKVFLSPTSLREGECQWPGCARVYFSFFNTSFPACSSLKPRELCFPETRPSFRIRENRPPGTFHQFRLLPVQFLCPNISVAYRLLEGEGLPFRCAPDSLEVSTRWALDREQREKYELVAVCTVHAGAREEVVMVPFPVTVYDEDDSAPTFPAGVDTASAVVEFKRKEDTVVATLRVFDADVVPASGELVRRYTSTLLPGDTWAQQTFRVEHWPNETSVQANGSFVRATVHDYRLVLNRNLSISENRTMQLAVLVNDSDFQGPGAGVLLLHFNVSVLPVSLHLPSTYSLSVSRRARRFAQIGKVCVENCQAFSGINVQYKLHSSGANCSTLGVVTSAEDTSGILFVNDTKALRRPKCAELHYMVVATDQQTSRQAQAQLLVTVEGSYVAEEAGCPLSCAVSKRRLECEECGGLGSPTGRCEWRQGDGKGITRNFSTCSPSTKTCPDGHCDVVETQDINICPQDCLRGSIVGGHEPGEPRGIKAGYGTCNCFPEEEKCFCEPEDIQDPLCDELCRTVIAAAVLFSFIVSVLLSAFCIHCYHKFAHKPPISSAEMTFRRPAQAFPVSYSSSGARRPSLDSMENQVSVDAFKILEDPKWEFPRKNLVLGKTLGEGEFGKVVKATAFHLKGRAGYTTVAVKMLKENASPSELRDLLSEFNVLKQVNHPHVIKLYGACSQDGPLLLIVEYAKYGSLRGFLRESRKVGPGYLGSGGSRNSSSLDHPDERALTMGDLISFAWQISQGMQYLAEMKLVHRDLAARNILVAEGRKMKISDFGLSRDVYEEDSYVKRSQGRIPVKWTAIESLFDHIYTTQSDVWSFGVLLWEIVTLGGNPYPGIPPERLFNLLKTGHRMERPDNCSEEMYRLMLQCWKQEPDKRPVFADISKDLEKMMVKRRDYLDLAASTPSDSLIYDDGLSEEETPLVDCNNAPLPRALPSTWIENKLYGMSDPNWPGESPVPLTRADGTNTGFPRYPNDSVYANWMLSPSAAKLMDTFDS
Sequence of D(2) dopamine receptor (Homo sapiens) (P14416 whole entry): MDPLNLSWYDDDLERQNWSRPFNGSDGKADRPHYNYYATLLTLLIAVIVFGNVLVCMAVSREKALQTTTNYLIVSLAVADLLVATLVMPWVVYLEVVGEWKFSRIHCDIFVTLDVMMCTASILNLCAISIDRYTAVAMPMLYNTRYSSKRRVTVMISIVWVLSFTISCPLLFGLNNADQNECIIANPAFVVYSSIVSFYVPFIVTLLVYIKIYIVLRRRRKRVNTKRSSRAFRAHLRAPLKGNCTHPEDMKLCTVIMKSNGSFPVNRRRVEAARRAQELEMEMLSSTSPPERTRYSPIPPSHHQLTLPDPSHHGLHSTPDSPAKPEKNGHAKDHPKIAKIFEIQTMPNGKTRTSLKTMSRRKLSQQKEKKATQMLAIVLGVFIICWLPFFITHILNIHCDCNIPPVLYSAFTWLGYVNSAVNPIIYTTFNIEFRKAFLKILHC

O=C(N1CCS(=O)(=O)CC1)N1C[C@H](c2ccc(OC(F)(F)F)cc2)C[C@H](c2nc(C3CC3)no2)C1 [BAY-386]
residual activity [1]: 100% | % Inhibition of Control Agonist Response (Mean n=2) [2]: -0.2% | % of Control Agonist Response (Mean n=2) [2]: 3.4% | residual activity [3]: 90% | residual activity [4]: 100% | residual activity [5]: 100% | residual activity [6]: 100% | residual activity [7]: 100% | residual activity [8]: 92% | residual activity [9]: 100% | inhibition [10]: -0.34% | residual activity [11]: 100% | residual activity [12]: 97% | residual activity [13]: 100% | residual activity [14]: 95% | residual activity [15]: 75% | residual activity [16]: 100% | % Inhibition of Control Agonist Response (Mean n=2) [17]: 80.7% | % of Control Agonist Response (Mean n=2) [17]: -267% | residual activity [18]: 65% | residual activity [19]: 86% | residual activity [20]: 98% | inhibition [21]: 9.95% | residual activity [22]: 100% | % Inhibition of Control Agonist Response (Mean n=2) [23]: -1.7% | % of Control Agonist Response (Mean n=2) [23]: 6.3% | residual activity [24]: 94% | inhibition [25]: 0.01% | residual activity [26]: 75% | residual activity [27]: 81% | residual activity [28]: 100% | residual activity [29]: 86% | residual activity [30]: 92% | residual activity [31]: 100% | residual activity [32]: 97% | inhibition [33]: -0.71% | residual activity [34]: 100% | residual activity [35]: 100% | residual activity [36]: 96% | residual activity [37]: 100% | residual activity [38]: 100%

Cc1noc([C@H]2C[C@@H](c3ccc(C(F)(F)F)cc3)CN(C(=O)N3CCS(=O)(=O)C3)C2)n1 [BAY-448]
residual activity [1]: 100% | % Inhibition of Control Agonist Response (Mean n=2) [2]: 6.8% | % of Control Agonist Response (Mean n=2) [2]: 0.3% | residual activity [3]: 100% | residual activity [4]: 100% | residual activity [5]: 90% | residual activity [6]: 100% | residual activity [7]: 100% | residual activity [8]: 100% | residual activity [9]: 100% | inhibition [10]: 6.96% | residual activity [11]: 69% | residual activity [12]: 100% | residual activity [13]: 100% | residual activity [14]: 100% | residual activity [15]: 99% | residual activity [16]: 100% | % Inhibition of Control Agonist Response (Mean n=2) [17]: -0.6% | % of Control Agonist Response (Mean n=2) [17]: -17.6% | residual activity [18]: 100% | residual activity [19]: 87% | residual activity [20]: 100% | inhibition [21]: 22.6% | residual activity [22]: 86% | % Inhibition of Control Agonist Response (Mean n=2) [23]: -13.5% | % of Control Agonist Response (Mean n=2) [23]: 2.5% | residual activity [24]: 100% | inhibition [25]: 5.46% | residual activity [26]: 100% | residual activity [27]: 84% | residual activity [28]: 95% | residual activity [29]: 100% | residual activity [30]: 100% | residual activity [31]: 94% | residual activity [32]: 96% | inhibition [33]: -0.15% | residual activity [34]: 100% | residual activity [35]: 85% | residual activity [36]: 100% | residual activity [37]: 100% | residual activity [38]: 100%
